Results reported in patent US10385070B2, “Chroman-spirocyclic piperidine amides as modulators of ion channels” (VERTEX PHARMACEUTICALS INCORPORATED, priority 2011, dated 2019).
pIC50: −log10 of the molar value.

Target: human NaV subtype, like NaV 1.7 (Homo sapiens, UniProt Q15858)
Test: E-VIPR optical membrane potential assay with electrical stimulation
Type: cell-based
Settings: active against one or more sodium channels; assay and NaV subtype not specified for Table 3; read-out: IC50 Binned Activity Data
Outline: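 HEK cells expressing human NaV (e.g. NaV1.7), loaded with CC2-DMPE/DiSBAC6(3) FRET dyes, compounds 20–35 min at room temperature, 0.625% DMSO, KCl 4.5–20 mM. Electrical stimulation ~9 s at 400 Hz scan; background-subtracted 460/580 nm emission ratios normalized; tetracaine 125 µM as positive control.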

Chain of human NaV subtype, like NaV 1.7 (Q15858 whole entry): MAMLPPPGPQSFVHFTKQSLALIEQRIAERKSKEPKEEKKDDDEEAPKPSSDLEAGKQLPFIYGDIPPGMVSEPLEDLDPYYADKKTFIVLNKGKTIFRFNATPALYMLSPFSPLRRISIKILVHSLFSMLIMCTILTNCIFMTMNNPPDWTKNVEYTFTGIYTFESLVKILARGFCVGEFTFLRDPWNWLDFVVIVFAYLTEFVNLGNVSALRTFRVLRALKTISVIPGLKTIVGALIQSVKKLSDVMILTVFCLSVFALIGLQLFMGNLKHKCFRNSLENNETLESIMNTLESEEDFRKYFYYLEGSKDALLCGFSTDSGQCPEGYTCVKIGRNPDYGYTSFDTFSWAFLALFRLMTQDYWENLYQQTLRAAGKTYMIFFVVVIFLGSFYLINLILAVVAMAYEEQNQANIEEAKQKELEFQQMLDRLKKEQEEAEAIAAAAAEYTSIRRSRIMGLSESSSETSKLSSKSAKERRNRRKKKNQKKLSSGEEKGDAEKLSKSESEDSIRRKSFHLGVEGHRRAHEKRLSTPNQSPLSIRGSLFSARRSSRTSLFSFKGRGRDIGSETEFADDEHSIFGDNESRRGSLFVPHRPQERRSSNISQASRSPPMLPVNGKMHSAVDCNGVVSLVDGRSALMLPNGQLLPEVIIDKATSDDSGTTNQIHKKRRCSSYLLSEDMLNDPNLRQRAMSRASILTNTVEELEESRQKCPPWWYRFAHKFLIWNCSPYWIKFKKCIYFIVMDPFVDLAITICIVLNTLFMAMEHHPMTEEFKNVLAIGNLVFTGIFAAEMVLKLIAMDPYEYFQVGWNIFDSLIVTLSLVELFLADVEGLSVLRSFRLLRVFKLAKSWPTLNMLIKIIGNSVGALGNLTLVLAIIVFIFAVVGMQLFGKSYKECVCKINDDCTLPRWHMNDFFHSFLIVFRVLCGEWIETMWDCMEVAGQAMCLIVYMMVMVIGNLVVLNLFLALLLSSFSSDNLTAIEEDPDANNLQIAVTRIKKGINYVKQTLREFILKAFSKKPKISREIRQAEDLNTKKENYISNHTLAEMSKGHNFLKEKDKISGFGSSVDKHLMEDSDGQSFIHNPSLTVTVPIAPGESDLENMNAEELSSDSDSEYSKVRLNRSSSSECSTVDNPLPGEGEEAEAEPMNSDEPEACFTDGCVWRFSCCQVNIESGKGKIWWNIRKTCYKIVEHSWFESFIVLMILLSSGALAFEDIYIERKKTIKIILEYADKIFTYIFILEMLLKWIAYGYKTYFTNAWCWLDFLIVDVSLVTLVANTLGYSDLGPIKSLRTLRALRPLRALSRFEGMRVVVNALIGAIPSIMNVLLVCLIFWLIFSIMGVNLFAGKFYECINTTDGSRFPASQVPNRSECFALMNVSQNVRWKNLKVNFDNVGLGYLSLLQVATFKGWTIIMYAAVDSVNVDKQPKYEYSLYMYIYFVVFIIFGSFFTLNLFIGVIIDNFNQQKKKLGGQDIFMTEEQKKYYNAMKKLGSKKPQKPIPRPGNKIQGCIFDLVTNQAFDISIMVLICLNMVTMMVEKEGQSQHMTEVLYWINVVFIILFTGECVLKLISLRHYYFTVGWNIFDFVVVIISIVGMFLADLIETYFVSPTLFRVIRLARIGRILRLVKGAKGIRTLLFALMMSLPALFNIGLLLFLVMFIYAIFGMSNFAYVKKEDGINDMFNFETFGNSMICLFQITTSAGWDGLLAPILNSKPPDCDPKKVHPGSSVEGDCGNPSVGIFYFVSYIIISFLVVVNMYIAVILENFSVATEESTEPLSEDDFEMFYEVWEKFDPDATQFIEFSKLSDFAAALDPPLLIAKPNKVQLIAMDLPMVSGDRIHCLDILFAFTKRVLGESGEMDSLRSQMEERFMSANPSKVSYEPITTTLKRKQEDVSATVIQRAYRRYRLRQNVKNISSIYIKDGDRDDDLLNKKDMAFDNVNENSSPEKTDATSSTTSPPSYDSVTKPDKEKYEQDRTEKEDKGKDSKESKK

Compound	pIC50
COc1cc(C(=O)N2CCC3(CC2)CC(COC(C)C)c2ccccc2O3)ccc1C(C)(C)O (centres unmarked) [Compound 163]	≥ 5.70
CC(C)Oc1ccc(C(=O)N2CCC3(CC2)C[C@@H](OC(C)C)c2cc(F)ccc2O3)cc1C#N [Compound 164]	≥ 5.70
COc1cc(C(=O)N2CCC3(CC2)Oc2ccccc2CC3OC)ccc1OC(C)C (centres unmarked) [Compound 165]	≥ 5.70
COCC1CC2(CCN(C(=O)c3ccc(OC(C)C)c(OC)c3)CC2)Oc2ccccc21 (centres unmarked) [Compound 168]	≥ 5.70
COc1cc(O)ccc1C(=O)N1CCC2(CC1)C[C@@H](OC(C)C)c1ccccc1O2 [Compound 170]	≥ 5.70
COc1cc(C(=O)N2CCC3(CC2)CC(OC2CCC2)c2ccccc2O3)ccc1OC(C)C (centres unmarked) [Compound 172]	≥ 5.70
CC(C)O[C@@H]1CC2(CCN(C(=O)c3ccc(NC(C)(C)C)cn3)CC2)Oc2ccc(F)cc21 [Compound 174]	≥ 5.70
CC(C)O[C@@H]1CC2(CCN(C(=O)c3ccc(S(=O)(=O)C(C)C)cn3)CC2)Oc2ccc(F)cc21 [Compound 175]	≥ 5.70
COc1cc(C(=O)N2CCC3(CC2)CC(OC(C)C)c2cccc(F)c2O3)ccc1OC(C)C (centres unmarked) [Compound 177]	≥ 5.70

Second part, the compound after the results:

pIC50	Compound
5.30 to 5.70	COc1cc(C(=O)N2CCC3(CCc4ccccc4O3)CC2)ccc1OC(C)C [Compound 162]
≥ 5.70	COc1cc(C(=O)N2CCC3(CC2)C[C@H](OC(C)C)c2ccccc2O3)ccc1C(C)(C)O [Compound 166]
≥ 5.70	CC(C)Oc1ccc(C(=O)N2CCC3(CC2)C[C@H](OC(C)C)c2ccccc2O3)cc1C#N [Compound 167]
≥ 5.70	Cc1cc(OC(C)C)ccc1C(=O)N1CCC2(CC1)C[C@@H](OC(C)C)c1ccccc1O2 [Compound 169]
≥ 5.70	COc1cc(C(=O)N2CCC3(CC2)C[C@H](OC(C)C)c2ccccc2O3)ccc1OC(C)C [Compound 171]
≥ 5.70	CC(C)Oc1ccc(C(=O)N2CCC3(CC2)C[C@@H](OC(C)C)c2cc(F)ccc2O3)cc1CN(C)C [Compound 173]
≥ 5.70	CC(C)O[C@@H]1CC2(CCN(C(=O)c3ccc(N4CC(C)OC(C)C4)cn3)CC2)Oc2ccc(F)cc21 (some centres unmarked) [Compound 176]
≥ 5.70	CCCNc1ccc(C(=O)N2CCC3(CC2)C[C@@H](OC(C)C)c2cc(F)ccc2O3)nc1 [Compound 178]
